In data set [1] the test system is hair follicle growth in mice after depilation. The experiment in a line: Wax-depilation hair follicle regrowth study. The data set is classed as in vivo, C57BL6 mice. The following applies: twice daily oral.
Data set [2] relates to HEKa. Nature of the data set: In vitro transport assay: intracellular drug accumulation in HEKa. The data set is classed as in vitro ADME, human. The following applies: for intracellular accumulation / transport in HEKa (in words): kinase inhibitors 1 µM, 5 min.
The conditions of data set [3]: cited from earlier work.
Data set [4] is described as follows: Plasma pharmacokinetic study of sorafenib. The data set is classed as in vivo, C57BL6 mice. The following applies: sorafenib 60 mg/kg oral, single agent, 0 to 6 hours.
In data set [5] the test system is Human primary keratinocytes (HEKa). Nature of the data set: HEKa cell viability.
Data set [6] has as its target T1, TAK1 (Homo sapiens, UniProt O43318).
T1 sequence (O43318 1-606): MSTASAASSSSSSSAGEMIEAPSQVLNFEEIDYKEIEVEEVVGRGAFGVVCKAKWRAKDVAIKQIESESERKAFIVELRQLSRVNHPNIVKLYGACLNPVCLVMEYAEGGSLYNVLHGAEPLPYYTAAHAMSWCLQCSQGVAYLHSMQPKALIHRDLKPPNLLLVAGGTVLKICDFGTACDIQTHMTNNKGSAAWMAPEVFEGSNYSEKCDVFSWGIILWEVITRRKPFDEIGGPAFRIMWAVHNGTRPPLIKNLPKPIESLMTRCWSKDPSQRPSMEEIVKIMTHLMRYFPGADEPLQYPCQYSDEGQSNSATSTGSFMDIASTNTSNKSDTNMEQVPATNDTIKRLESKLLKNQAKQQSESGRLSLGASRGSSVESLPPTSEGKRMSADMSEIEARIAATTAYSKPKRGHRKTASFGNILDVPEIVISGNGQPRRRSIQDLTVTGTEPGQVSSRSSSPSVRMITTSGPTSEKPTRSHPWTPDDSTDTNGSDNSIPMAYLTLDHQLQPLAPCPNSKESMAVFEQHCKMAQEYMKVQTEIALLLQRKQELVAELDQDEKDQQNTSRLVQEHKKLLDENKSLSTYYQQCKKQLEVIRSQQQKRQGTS
Nature of the data set: KiNativ in situ kinome profiling in HEKa, TAK1. The data set is classed as binding. The following applies: intact HEKa, 1 hr treatment, clinically-achievable concentration.

Data set [7] relates to A549, 7860, HepG2 and CHRF288-11 cell lines. The experiment in a line: In vitro antitumor efficacy of sorafenib with or without probenecid. The data set is classed as cell-based, human. The following applies: probenecid 500 µM, sorafenib 0.1 – 100 µM, 72 hours.
Data set [8] relates to sorafenib accumulation in MPEK. Nature of the data set: Inhibition of sorafenib accumulation in MPEK by probenecid. The data set is classed as cell-based, mouse. The following applies: probenecid 100 µM, sorafenib 1 µM, 15 min.
In data set [9] the test system is sorafenib uptake in HEKa (OATs; SLC22A). The experiment in a line: Inhibition of sorafenib uptake in HEKa by transporter inhibitors. The data set is classed as cell-based, human. The following applies: OAT inhibitors 100 µM, sorafenib 1 µM, 15 min.

SMILES strings stand for the structures. Where two headings read alike, the source gives them in different places.

A word on the Km: it is the substrate concentration at which the rate is half of its maximum. Take `CNC(=O)c1cc(Oc2ccc(NC(=O)Nc3ccc(Cl)c(C(F)(F)F)c3)cc2)ccn1` [sorafenib]: in data set [1] (sorafenib 60 mg/kg), the “hair follicle histology (day 14, H&E)” value is “reduced melanin and a gross disruption in morphology”; the “hair growth one week after depilation” value is given as “hair growth was delayed”. In data set [1] (sorafenib 60 mg/kg or imatinib 100 mg/kg), the “hair growth and pigmentation at two weeks” value was “hair was less dense and lacked pigmentation”. Besides, the “maximum velocity (Vmax) of uptake” value in data set [2] (HEKa uptake) was 20,900 pmol/5min/mg protein. Further, the “intracellular accumulation / transport in HEKa (in words)” value in data set [2] is “highly accumulates”. In data set [2] (read-out: Michaelis-Menten constant (Km) of uptake, HEKa uptake), the Km came out at 7 µM. Further, the “permeability (in words)” value in data set [3] is reported as “poorly permeable”. Besides, the “area under the plasma concentration-time curve (mean ± SEM)” value in data set [4] turned out to be 32500 ± 10900 ng·h/mL.

`CCN(CC)CCNC(=O)c1c(C)[nH]c(/C=C2\C(=O)Nc3ccc(F)cc32)c1C` [sunitinib]: the “cell viability / cytotoxicity against HEKa (in words)” value (“cell viability / cytotoxicity” below) in [5] is recorded as “induces cytotoxicity against HEKa”. Moreover, in [6], the “affinity for TAK1 in HEKa by in situ kinome profiling (in words)” value is listed as “high affinity”.

With `Cc1ccc(NC(=O)c2ccc(CN3CCN(C)CC3)cc2)cc1Nc1nccc(-c2cccnc2)n1` [imatinib], the “cell viability / cytotoxicity” value in data set [5] (HEKa, 72 h) was “not sensitive”.

For `CCCN(CCC)S(=O)(=O)c1ccc(C(=O)O)cc1` [probenecid], the “influence of probenecid on cytotoxic effects of sorafenib” value in [7] is listed as “did not antagonize the cytotoxic effects of sorafenib”. In addition, the “sensitivity of sorafenib accumulation to probenecid” value in data set [8] is reported as “sensitive to probenecid”. Moreover, the “sensitivity of sorafenib uptake to inhibitor” value (“sensitivity … to inhibitor” below) in data set [9] was “sensitivity of sorafenib uptake”.

For `COc1cc(O)c2c(c1)/C=C/C[C@H](O)[C@H](O)C(=O)/C=C\C[C@H](C)OC2=O` [(5z)-7-oxozeaenol], the “cell viability / cytotoxicity” value in data set [5] (HEKa, 72 h) was “dose-dependently reduced cell viability”.

Consider `CNC(=O)c1cc(Oc2ccc(NC(=O)Nc3ccc(Cl)c(C(F)(F)F)c3)cc2)cc[n+]1[O-]` [sorafenib N-oxide], for which the “cell viability / cytotoxicity” value in data set [5] (HEKa, 72 h) is recorded as “cytotoxicity against HEKa”. Besides, the “intracellular accumulation / transport in HEKa (in words)” value in data set [2] is “temperature- and time-dependent transport”.

Regarding `Cc1nc(Nc2ncc(C(=O)Nc3c(C)cccc3Cl)s2)cc(N2CCN(CCO)CC2)n1` [dasatinib], in data set [6], the “affinity for TAK1 in HEKa by in situ kinome profiling (in words)” value is “low affinity”.

Take `C[N+]1(C)CCOC(O)(c2ccc(-c3ccc(C4(O)C[N+](C)(C)CCO4)cc3)cc2)C1.[Br-].[Br-]` (centres unmarked) [hemicholinum-3]: the “sensitivity … to inhibitor” value in data set [9] is “sensitivity of sorafenib uptake”.

Take `COc1cc(CC(=O)O)ccc1O` [homovanillic acid]: the “sensitivity … to inhibitor” value in data set [9] is given as “sensitivity of sorafenib uptake”.

These data come from publication PMC4713045 (Cancer research, 2015).
